Where “and” joins values, the source holds several entries; their conditions need not be identical. Identical values can stand only once.
How the values were obtained:
Assay in all cases: KINATIV assay
Type in all cases: cell-based
Settings in all cases: 1 μM, 90 minutes, BCWM.1 cells
Erk1 = Erk1 (Homo sapiens (Human), UniProt P27361)
Method: (§1) The cells were harvested and lysed. The lysates were directly labeled with an ATP-biotin probe. Bound kinases were identified and quantitated by ACTIVX as described in Patricelli et al., Biochemistry, 2007, 46(2): 350-358. The compounds were tested in duplicates against duplicate or quadruplicate control samples.

FRAP = FRAP (Homo sapiens (Human), UniProt P42345)
Method: as §1

MARK4 = MARK4 (Homo sapiens (Human), UniProt Q96L34)
Method: as §1

PI4KB = PI4KB (Homo sapiens (Human), UniProt Q9UBF8)
Method: as §1

MAP3K1 = MAP3K1 (Homo sapiens (Human), UniProt Q13233)
Method: as §1

ULK1 = ULK1 (Homo sapiens (Human), UniProt O75385)
Method: as §1

CDK11, CDK8 = tested on: CDK11, CDK8
Method: as §1

TLK2 = TLK2 (Homo sapiens (Human), UniProt Q86UE8)
Method: as §1

PKN1 = PKN1 (Homo sapiens (Human), UniProt Q16512)
Method: as §1

FGR = FGR (Homo sapiens (Human), UniProt P09769)
FGR, sequence (P09769 whole entry): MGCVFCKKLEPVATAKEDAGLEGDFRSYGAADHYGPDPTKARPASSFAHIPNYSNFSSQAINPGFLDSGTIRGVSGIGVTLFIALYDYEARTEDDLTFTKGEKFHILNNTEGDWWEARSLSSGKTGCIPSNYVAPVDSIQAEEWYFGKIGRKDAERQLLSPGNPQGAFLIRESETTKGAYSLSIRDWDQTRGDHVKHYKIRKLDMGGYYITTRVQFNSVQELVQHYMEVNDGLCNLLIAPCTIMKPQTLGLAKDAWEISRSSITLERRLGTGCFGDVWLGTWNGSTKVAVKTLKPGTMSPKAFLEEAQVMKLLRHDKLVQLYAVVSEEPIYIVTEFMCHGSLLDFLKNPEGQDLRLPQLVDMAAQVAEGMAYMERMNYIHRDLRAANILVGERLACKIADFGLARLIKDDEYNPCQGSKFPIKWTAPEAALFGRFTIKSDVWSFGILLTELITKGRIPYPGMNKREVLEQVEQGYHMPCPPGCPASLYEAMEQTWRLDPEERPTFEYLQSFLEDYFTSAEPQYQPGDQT
Method: as §1

ITPK1 = ITPK1 (Homo sapiens (Human), UniProt Q13572)
Method: as §1

MAP3K4 = MAP3K4 (Homo sapiens (Human), UniProt Q9Y6R4)
Method: as §1

NEK6, NEK7 = tested on: NEK6, NEK7
Method: as §1

MST1 = MST1 (Homo sapiens (Human), UniProt Q13043)
Method: as §1

p38b = p38b (Homo sapiens (Human), UniProt Q15759)
Method: as §1

PIK3CB = PIK3CB (Homo sapiens (Human), UniProt P42338)
Method: as §1

PEK = PEK (Homo sapiens (Human), UniProt Q9NZJ5)
Method: as §1

PIP4K2C = PIP4K2C (Homo sapiens (Human), UniProt Q8TBX8)
Method: as §1

MST1, MST2 = tested on: MST1, MST2
Method: as §1

PIP5K3 = PIP5K3 (Homo sapiens (Human), UniProt Q9Y2I7)
Method: as §1

KHS1 = KHS1 (Homo sapiens (Human), UniProt Q9Y4K4)
Method: as §1

PYK2 = PYK2 (Homo sapiens (Human), UniProt Q14289)
Method: as §1

RSK2 domain2 = RSK2 domain2 (Homo sapiens (Human), UniProt P51812)
Method: as §1

RSK3 = RSK3 (Homo sapiens (Human), UniProt Q15349)
Method: as §1

GCN2 = GCN2 (Homo sapiens (Human), UniProt Q9P2K8)
Method: as §1

MAP3K5 = MAP3K5 (Homo sapiens (Human), UniProt Q99683)
Method: as §1

PIK3CD = PIK3CD (Homo sapiens (Human), UniProt O00329)
PIK3CD, sequence (O00329 whole entry): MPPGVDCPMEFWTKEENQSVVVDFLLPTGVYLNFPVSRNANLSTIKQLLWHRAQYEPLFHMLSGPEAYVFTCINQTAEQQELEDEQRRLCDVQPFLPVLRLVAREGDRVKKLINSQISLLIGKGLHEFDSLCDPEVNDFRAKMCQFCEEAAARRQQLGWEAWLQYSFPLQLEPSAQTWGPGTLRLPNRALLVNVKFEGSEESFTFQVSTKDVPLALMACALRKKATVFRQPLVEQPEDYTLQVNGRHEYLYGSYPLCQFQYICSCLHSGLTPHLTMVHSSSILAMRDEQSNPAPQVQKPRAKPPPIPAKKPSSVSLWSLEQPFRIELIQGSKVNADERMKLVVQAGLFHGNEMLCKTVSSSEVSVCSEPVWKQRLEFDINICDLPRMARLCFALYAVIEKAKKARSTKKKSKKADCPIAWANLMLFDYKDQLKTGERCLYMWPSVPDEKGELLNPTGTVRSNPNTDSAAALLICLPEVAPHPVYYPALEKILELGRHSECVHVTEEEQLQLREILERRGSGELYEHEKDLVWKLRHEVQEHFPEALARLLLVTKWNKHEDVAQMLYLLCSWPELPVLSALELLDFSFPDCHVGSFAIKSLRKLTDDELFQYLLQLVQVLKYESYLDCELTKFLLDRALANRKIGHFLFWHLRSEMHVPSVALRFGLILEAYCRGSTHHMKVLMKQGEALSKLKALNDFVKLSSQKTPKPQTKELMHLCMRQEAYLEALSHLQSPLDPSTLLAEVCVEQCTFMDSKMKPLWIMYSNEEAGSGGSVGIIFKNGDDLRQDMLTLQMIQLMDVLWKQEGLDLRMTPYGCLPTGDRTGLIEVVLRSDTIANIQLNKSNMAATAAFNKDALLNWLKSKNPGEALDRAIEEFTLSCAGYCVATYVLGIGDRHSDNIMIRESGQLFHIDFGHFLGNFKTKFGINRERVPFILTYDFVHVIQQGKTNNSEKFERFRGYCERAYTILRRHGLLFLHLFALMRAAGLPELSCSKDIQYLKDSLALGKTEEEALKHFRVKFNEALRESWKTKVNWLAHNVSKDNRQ
PIK3CD, sequence (P27986 whole entry partner): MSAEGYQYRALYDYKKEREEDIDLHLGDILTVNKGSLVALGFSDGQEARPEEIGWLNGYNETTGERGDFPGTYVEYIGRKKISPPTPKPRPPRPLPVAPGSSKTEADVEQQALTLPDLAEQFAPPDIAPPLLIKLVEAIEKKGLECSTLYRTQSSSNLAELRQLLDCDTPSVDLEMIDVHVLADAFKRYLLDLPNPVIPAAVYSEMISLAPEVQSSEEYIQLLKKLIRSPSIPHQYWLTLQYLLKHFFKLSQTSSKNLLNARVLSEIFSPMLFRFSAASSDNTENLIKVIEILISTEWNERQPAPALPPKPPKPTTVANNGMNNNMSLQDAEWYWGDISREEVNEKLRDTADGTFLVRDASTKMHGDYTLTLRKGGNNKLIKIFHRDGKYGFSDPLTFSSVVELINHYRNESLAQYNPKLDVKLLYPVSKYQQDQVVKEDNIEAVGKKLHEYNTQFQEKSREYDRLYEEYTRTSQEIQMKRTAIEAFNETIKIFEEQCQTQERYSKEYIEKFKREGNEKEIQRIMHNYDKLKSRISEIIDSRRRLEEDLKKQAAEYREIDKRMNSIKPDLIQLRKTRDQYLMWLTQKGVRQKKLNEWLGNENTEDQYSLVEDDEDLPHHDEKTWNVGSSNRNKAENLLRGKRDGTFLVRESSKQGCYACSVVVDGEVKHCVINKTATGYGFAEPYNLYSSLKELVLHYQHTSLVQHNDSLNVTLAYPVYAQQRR
Method: as §1

AMPKa1 = AMPKa1 (Homo sapiens (Human), UniProt Q13131)
Method: as §1

STK33 = STK33 (Homo sapiens (Human), UniProt Q9BYT3)
STK33, sequence (Q9BYT3 whole entry): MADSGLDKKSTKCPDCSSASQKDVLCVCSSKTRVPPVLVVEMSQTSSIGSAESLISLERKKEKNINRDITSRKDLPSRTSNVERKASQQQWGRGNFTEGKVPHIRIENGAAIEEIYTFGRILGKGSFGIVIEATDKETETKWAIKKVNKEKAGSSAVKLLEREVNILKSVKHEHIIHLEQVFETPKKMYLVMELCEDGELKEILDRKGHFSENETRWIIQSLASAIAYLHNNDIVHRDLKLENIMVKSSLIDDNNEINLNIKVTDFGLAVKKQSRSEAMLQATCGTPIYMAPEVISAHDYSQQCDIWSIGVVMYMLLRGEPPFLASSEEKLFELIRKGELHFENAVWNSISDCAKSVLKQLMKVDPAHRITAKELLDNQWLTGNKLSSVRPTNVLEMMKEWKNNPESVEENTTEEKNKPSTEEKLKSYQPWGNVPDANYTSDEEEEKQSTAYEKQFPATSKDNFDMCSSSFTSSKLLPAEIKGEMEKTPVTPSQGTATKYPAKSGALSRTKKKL
Method: as §1

YSK1 = YSK1 (Homo sapiens (Human), UniProt O00506)
Method: as §1

AKT1 = AKT1 (Homo sapiens (Human), UniProt P31749)
Method: as §1

MST4, YSK1 = tested on: MST4, YSK1
Method: as §1

BARK1 = BARK1 (Homo sapiens (Human), UniProt P25098)
BARK1, sequence (P25098 whole entry): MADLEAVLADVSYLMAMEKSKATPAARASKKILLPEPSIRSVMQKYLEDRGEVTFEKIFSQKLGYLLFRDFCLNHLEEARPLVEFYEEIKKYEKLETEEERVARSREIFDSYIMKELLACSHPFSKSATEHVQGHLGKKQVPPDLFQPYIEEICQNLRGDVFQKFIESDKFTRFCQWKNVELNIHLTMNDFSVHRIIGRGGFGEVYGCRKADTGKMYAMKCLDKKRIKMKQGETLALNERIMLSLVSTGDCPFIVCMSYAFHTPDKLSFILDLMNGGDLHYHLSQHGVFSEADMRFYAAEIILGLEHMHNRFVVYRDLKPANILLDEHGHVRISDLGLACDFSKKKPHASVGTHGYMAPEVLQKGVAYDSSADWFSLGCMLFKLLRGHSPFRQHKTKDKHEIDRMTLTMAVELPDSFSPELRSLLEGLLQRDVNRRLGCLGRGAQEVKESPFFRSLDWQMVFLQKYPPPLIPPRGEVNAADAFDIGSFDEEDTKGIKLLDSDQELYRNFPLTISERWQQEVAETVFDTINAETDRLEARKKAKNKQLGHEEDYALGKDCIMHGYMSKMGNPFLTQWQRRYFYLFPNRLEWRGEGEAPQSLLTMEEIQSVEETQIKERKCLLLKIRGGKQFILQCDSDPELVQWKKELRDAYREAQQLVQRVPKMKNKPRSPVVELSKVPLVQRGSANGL
Method: as §1

TBK1 = TBK1 (Homo sapiens (Human), UniProt Q9UHD2)
Method: as §1

STLK6 = STLK6 (Homo sapiens (Human), UniProt Q9C0K7)
Method: as §1

IKKe = IKKe (Homo sapiens (Human), UniProt Q14164)
Method: as §1

PHKg2 = PHKg2 (Homo sapiens (Human), UniProt P15735)
PHKg2, sequence (P15735 whole entry): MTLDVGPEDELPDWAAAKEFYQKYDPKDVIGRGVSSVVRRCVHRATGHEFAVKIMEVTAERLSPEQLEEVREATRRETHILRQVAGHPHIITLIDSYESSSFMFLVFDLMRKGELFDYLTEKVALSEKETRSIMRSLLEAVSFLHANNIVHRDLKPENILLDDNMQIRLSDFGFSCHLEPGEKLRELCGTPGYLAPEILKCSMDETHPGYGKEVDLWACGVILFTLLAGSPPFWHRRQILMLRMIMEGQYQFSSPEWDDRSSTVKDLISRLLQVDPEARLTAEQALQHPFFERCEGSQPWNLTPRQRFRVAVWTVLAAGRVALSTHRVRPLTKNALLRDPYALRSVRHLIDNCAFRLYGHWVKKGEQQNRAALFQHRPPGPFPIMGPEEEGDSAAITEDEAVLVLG
Method: as §1

MSK1 domain1 = MSK1 domain1 (Homo sapiens (Human), UniProt O75582)
Method: as §1

MST2 = MST2 (Homo sapiens (Human), UniProt Q13188)
Method: as §1

ULK3 = ULK3 (Homo sapiens (Human), UniProt Q6PHR2)
ULK3, sequence (Q6PHR2 whole entry): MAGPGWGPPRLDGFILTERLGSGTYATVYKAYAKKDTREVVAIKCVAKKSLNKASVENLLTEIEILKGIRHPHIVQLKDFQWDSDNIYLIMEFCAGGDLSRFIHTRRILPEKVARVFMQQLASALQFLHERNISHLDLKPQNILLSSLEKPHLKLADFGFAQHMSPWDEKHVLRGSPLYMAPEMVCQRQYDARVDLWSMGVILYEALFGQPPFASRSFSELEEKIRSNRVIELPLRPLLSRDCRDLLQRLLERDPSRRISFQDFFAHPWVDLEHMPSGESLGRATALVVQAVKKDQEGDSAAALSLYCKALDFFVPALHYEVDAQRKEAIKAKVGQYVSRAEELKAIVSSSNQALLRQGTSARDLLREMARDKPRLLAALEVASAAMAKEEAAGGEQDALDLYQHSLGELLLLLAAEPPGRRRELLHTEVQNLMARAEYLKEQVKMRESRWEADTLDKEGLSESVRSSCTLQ
Method: as §1

CDC2 = CDC2 (Homo sapiens (Human), UniProt P06493)
Method: as §1

Erk1, sequence (P27361 whole entry): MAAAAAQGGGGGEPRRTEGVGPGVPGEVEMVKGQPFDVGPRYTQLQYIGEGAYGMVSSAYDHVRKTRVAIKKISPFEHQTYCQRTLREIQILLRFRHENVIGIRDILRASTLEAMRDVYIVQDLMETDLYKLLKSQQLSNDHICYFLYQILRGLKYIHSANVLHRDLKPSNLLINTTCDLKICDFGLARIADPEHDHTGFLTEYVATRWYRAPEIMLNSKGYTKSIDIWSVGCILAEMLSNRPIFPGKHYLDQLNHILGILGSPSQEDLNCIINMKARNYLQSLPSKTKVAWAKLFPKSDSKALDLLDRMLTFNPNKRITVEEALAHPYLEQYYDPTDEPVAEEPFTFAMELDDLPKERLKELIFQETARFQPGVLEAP

Compound: C=CC(=O)N1CCC(CNc2nccc(Nc3ncc(C(=O)Nc4c(C)cccc4C)s3)n2)C1 (racemic) [Example I-8]
- % change of MS signal compared to control sample (Erk1): −19.7%
- % change of MS signal compared to control sample (FRAP): −5.2%
- % change of MS signal compared to control sample (MARK4): −0.4% and 1.6%
- % change of MS signal compared to control sample (PI4KB): 44.2% and 41.9%
- % change of MS signal compared to control sample (MAP3K1): 15.5%
- % change of MS signal compared to control sample (ULK1): 16.1%
- % change of MS signal compared to control sample (CDK11, CDK8): 19.6%
- % change of MS signal compared to control sample (TLK2): 9.4%
- % change of MS signal compared to control sample (PKN1): 13.7%
- % change of MS signal compared to control sample (FGR): 86.0%
- % change of MS signal compared to control sample (ITPK1): −16.4%
- % change of MS signal compared to control sample (MAP3K4): 12.8%
- % change of MS signal compared to control sample (NEK6, NEK7): −11.0%
- % change of MS signal compared to control sample (MST1): 2.4%
- % change of MS signal compared to control sample (p38b): 12.0%
- % change of MS signal compared to control sample (PIK3CB): −10.1%
- % change of MS signal compared to control sample (PEK): 3.3%
- % change of MS signal compared to control sample (PIP4K2C): 97.6% and 85.7%
- % change of MS signal compared to control sample (MST1, MST2): 8.7%
- % change of MS signal compared to control sample (PIP5K3): 4.2%
- % change of MS signal compared to control sample (KHS1): −8.4%
- % change of MS signal compared to control sample (PYK2): 20.3% and 25.5%
- % change of MS signal compared to control sample (RSK2 domain2): −6.8%
- % change of MS signal compared to control sample (RSK3): 2.9%
- % change of MS signal compared to control sample (GCN2): −20.3% and −13.6%
- % change of MS signal compared to control sample (MAP3K5): −0.7%
- % change of MS signal compared to control sample (PIK3CD): −16.2%
- % change of MS signal compared to control sample (AMPKa1): −0.6%
- % change of MS signal compared to control sample (STK33): 29.8%
- % change of MS signal compared to control sample (YSK1): −29.2%
- % change of MS signal compared to control sample (AKT1): −19.5%
- % change of MS signal compared to control sample (MST4, YSK1): 19.3%
- % change of MS signal compared to control sample (BARK1): −19.6%
- % change of MS signal compared to control sample (TBK1): −2.9%
- % change of MS signal compared to control sample (STLK6): −12.9%
- % change of MS signal compared to control sample (IKKe): −5.9%
- % change of MS signal compared to control sample (PHKg2): 6.4%
- % change of MS signal compared to control sample (MSK1 domain1): −45.5%
- % change of MS signal compared to control sample (MST2): 4.3%

Compound: C=CC(=O)N1CC[C@@H](Nc2nccc(Nc3ncc(C(=O)Nc4c(C)cccc4C)s3)n2)C1 [Example I-4]
- % change of MS signal compared to control sample (Erk1): −10.9%
- % change of MS signal compared to control sample (FRAP): 4.9%
- % change of MS signal compared to control sample (PI4KB): 20.0% and 16.7%
- % change of MS signal compared to control sample (MAP3K1): 18.4%
- % change of MS signal compared to control sample (ULK1): 16.2%
- % change of MS signal compared to control sample (CDK11, CDK8): −36.1%
- % change of MS signal compared to control sample (TLK2): 8.7%
- % change of MS signal compared to control sample (PKN1): 17.4%
- % change of MS signal compared to control sample (FGR): 87.0%
- % change of MS signal compared to control sample (ITPK1): 12.8%
- % change of MS signal compared to control sample (MAP3K4): −20.5%
- % change of MS signal compared to control sample (NEK6, NEK7): 3.7%
- % change of MS signal compared to control sample (MST1): 7.0%
- % change of MS signal compared to control sample (p38b): −29.6%
- % change of MS signal compared to control sample (ULK3): 22.5% and 21.9%
- % change of MS signal compared to control sample (PIK3CB): −61.3%
- % change of MS signal compared to control sample (PEK): −44.9%
- % change of MS signal compared to control sample (PIP4K2C): 71.0% and 43.0%
- % change of MS signal compared to control sample (MST1, MST2): 3.8%
- % change of MS signal compared to control sample (PIP5K3): 14.5%
- % change of MS signal compared to control sample (KHS1): −2.1%
- % change of MS signal compared to control sample (PYK2): 27.3%
- % change of MS signal compared to control sample (RSK2 domain2): 13.8%
- % change of MS signal compared to control sample (RSK3): 16.8%
- % change of MS signal compared to control sample (CDC2): −24.9%
- % change of MS signal compared to control sample (GCN2): −11.0% and −5.7%
- % change of MS signal compared to control sample (MAP3K5): −10.7%
- % change of MS signal compared to control sample (PIK3CD): −14.5%
- % change of MS signal compared to control sample (AMPKa1): 10.1%
- % change of MS signal compared to control sample (STK33): −23.0%
- % change of MS signal compared to control sample (YSK1): −58.5%
- % change of MS signal compared to control sample (AKT1): −11.0%
- % change of MS signal compared to control sample (MST4, YSK1): 20.5%
- % change of MS signal compared to control sample (BARK1): −8.1%
- % change of MS signal compared to control sample (TBK1): −34.8%
- % change of MS signal compared to control sample (STLK6): 7.4%
- % change of MS signal compared to control sample (IKKe): 2.2%
- % change of MS signal compared to control sample (PHKg2): −15.6%
- % change of MS signal compared to control sample (MSK1 domain1): −15.8%
- % change of MS signal compared to control sample (MST2): 12.3%

Compound: C=CC(=O)N1CCC(Cn2ccc(Nc3ncc(C(=O)Nc4c(C)cccc4Cl)s3)n2)C1 (stereo not shown) [II-1]
- % change of MS signal compared to control sample (Erk1): −17.6%
- % change of MS signal compared to control sample (FRAP): 8.6%
- % change of MS signal compared to control sample (MARK4): 12.8% and 9.7%
- % change of MS signal compared to control sample (PI4KB): 7.2% and 13.7%
- % change of MS signal compared to control sample (MAP3K1): −1.2%
- % change of MS signal compared to control sample (ULK1): 19.7%
- % change of MS signal compared to control sample (CDK11, CDK8): −9.2%
- % change of MS signal compared to control sample (TLK2): 7.3%
- % change of MS signal compared to control sample (PKN1): 20.9%
- % change of MS signal compared to control sample (FGR): 87.8%
- % change of MS signal compared to control sample (ITPK1): 14.0%
- % change of MS signal compared to control sample (MAP3K4): −23.9%
- % change of MS signal compared to control sample (NEK6, NEK7): −0.2%
- % change of MS signal compared to control sample (MST1): 13.2%
- % change of MS signal compared to control sample (p38b): −19.0%
- % change of MS signal compared to control sample (ULK3): 22.4% and 22.8%
- % change of MS signal compared to control sample (PIK3CB): −64.9%
- % change of MS signal compared to control sample (PEK): −31.0%
- % change of MS signal compared to control sample (MST1, MST2): 3.1%
- % change of MS signal compared to control sample (PIP5K3): 16.3%
- % change of MS signal compared to control sample (KHS1): −0.6%
- % change of MS signal compared to control sample (RSK2 domain2): 9.7%
- % change of MS signal compared to control sample (RSK3): 22.3%
- % change of MS signal compared to control sample (CDC2): −5.2% and 2.7%
- % change of MS signal compared to control sample (GCN2): −6.2% and −4.1%
- % change of MS signal compared to control sample (MAP3K5): −22.9%
- % change of MS signal compared to control sample (PIK3CD): −9.5%
- % change of MS signal compared to control sample (AMPKa1): 5.1%
- % change of MS signal compared to control sample (STK33): 11.0%
- % change of MS signal compared to control sample (YSK1): −27.4%
- % change of MS signal compared to control sample (AKT1): −17.8%
- % change of MS signal compared to control sample (MST4, YSK1): 9.2%
- % change of MS signal compared to control sample (BARK1): −23.3%
- % change of MS signal compared to control sample (TBK1): −30.2%
- % change of MS signal compared to control sample (STLK6): −0.8%
- % change of MS signal compared to control sample (IKKe): −1.0%
- % change of MS signal compared to control sample (PHKg2): −9.1%
- % change of MS signal compared to control sample (MSK1 domain1): −35.0%
- % change of MS signal compared to control sample (MST2): 14.7%
